Results as given in patent US10988477B2 (Merck Patent GmbH, priority 2018, dated 2021).

Target: GCN2 kinase (Homo sapiens, UniProt Q9P2K8)
Experiment: GCN2 enzyme inhibition assay (Transcreener ADP2 fluorescence polarization)
Format: biochemical
Conditions: Enzyme activity for compounds of Formula IV; Ki(app), 280 μM ATP, 25° C.
How it was run: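 Run at 25 °C in 25 mM Tris-HCl pH 7.5, 50 mM NaCl, 10 mM MgCl2, 1 mM DTT with 4 nM GCN2, 280 μM ATP and 200 μM (RS)7 peptide; compound (0–8 μM final) preincubated 10 min, reaction 1 h. ADP read by antibody/tracer FP; IC50 and Ki(app) from tight-binding fit.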

Chain of GCN2 kinase (Q9P2K8 whole entry): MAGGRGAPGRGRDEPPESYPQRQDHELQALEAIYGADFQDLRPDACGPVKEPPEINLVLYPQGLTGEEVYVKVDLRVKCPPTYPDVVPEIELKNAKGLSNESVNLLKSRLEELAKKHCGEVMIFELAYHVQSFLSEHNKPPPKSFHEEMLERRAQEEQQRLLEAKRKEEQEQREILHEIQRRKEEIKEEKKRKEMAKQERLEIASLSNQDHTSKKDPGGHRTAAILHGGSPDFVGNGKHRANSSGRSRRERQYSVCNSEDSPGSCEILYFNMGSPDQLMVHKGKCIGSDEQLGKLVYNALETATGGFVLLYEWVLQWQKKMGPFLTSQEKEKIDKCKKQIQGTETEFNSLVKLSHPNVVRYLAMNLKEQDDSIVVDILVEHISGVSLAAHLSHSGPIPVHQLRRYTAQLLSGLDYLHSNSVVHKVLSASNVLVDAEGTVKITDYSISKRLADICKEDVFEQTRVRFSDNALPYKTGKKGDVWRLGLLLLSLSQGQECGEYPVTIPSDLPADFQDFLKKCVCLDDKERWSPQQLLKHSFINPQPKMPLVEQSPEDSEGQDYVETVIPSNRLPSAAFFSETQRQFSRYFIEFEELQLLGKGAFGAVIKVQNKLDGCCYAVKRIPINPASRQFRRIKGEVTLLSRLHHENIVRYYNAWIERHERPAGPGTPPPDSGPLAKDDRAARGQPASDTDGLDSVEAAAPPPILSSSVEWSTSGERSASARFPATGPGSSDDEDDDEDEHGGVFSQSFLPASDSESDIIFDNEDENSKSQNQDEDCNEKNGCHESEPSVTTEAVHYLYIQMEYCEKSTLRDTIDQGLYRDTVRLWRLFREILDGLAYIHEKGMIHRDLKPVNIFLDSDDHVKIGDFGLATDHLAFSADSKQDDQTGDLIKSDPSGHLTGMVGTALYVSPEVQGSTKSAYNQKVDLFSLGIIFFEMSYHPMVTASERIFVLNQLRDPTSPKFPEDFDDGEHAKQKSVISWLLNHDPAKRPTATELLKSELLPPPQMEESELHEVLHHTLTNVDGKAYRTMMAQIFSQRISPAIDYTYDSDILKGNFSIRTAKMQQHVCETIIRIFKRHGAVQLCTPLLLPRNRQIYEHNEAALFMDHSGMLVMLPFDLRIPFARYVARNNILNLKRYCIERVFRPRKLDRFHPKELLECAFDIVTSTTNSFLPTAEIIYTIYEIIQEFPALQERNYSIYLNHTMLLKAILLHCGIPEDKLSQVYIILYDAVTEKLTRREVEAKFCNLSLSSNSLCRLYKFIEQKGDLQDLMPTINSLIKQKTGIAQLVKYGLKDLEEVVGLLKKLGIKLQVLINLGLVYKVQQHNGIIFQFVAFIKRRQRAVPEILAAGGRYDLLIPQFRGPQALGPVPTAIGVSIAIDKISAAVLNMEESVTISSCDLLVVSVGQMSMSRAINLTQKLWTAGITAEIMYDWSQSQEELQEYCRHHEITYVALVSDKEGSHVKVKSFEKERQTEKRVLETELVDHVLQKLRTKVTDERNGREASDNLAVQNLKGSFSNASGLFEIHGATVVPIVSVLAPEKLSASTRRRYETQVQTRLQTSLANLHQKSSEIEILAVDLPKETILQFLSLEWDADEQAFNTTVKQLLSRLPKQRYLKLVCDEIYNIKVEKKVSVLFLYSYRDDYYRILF

Ki [nM]	Compound
100 to 1000	NC(=O)c1cn2c(-c3nccc(N4CC(=O)N5CCCCC5C4)n3)cnc2cn1 (stereo not shown) [IV-263, 3-(4-(4-Oxooctahydro-2H-pyrido[1,2-a]pyrazin-2-yl)pyrimidin-2-yl)imidazo[1,2-a]pyrazine-6-carboxamide]
< 10	CC1CCCN(c2ccnc(-c3cnc4cnc(C(N)=O)cn34)n2)C1C (stereo not shown) [IV-264, 3-(4-(2,3-Dimethylpiperidin-1-yl)pyrimidin-2-yl)imidazo[1,2-a]pyrazine-6-carboxamide]
100 to 1000	NC(=O)c1cn2c(-c3nccc(N4CCN5CCCCC5C4)n3)cnc2cn1 (stereo not shown) [IV-265, 3-(4-(Octahydro-2H-pyrido[1,2-a]pyrazin-2-yl)pyrimidin-2-yl)imidazo[1,2-a]pyrazine-6-carboxamide]
10 to 100	NC(=O)c1cn2c(-c3nccc(N4CCC5(CC4)OCCO5)n3)cnc2cn1 [IV-266, 3-(4-(1,4-Dioxa-8-azaspiro[4.5]decan-8-yl)pyrimidin-2-yl)imidazo[1,2-a]pyrazine-6-carboxamide]
100 to 1000	CC(=O)N(C)C1CCN(c2ccnc(-c3cnc4cnc(C(N)=O)cn34)n2)C1 (stereo not shown) [IV-267, 3-(4-(3-(N-Methylacetamido)pyrrolidin-1-yl)pyrimidin-2-yl)imidazo[1,2-a]pyrazine-6-carboxamide]
100 to 1000	NC(=O)c1cn2c(-c3nccc(N4CC(=O)N5CCCC5C4)n3)cnc2cn1 (stereo not shown) [IV-268, 3-(4-(4-Oxohexahydropyrrolo[1,2-a]pyrazin-2(1H)-yl)pyrimidin-2-yl)imidazo[1,2-a]pyrazine-6-carboxamide]
10 to 100	NC(=O)c1cn2c(-c3nccc(N4CCC5(CCCO5)CC4)n3)cnc2cn1 [IV-269, 3-(4-(1-Oxa-8-azaspiro[4.5]decan-8-yl)pyrimidin-2-yl)imidazo[1,2-a]pyrazine-6-carboxamide]
100 to 1000	NC(=O)c1cn2c(-c3nccc(N4CC5(CCOC5)C4)n3)cnc2cn1 [IV-270, 3-(4-(6-Oxa-2-azaspiro[3.4]octan-2-yl)pyrimidin-2-yl)imidazo[1,2-a]pyrazine-6-carboxamide]
100 to 1000	CC1CCC(C)N(c2ccnc(-c3cnc4cnc(C(N)=O)cn34)n2)C1 (stereo not shown) [IV-271, 3-(4-(2,5-Dimethylpiperidin-1-yl)pyrimidin-2-yl)imidazo[1,2-a]pyrazine-6-carboxamide]
100 to 1000	CC(=O)N1CCN(c2ccnc(-c3cnc4cnc(C(N)=O)cn34)n2)C(C)C1 (stereo not shown) [IV-272, 3-(4-(4-Acetyl-2-methylpiperazin-1-yl)pyrimidin-2-yl)imidazo[1,2-a]pyrazine-6-carboxamide]
100 to 1000	CC(=O)N1CCN(c2cccc(-c3cnc4cnc(C(=O)N(C)C)cn34)n2)CC1 [IV-276, 3-(6-(4-Acetylpiperazin-1-yl)pyridin-2-yl)-N,N-dimethylimidazo[1,2-a]pyrazine-6-carboxamide]
10 to 100	NC(=O)c1cn2c(-c3nccc(N4CCN(C(=O)C5CC5)CC4)n3)cnc2cn1 [IV-277, 3-(4-(4-(Cyclopropanecarbonyl)piperazin-1-yl)pyrimidin-2-yl)imidazo[1,2-a]pyrazine-6-carboxamide]
< 10	Cc1[nH]ncc1C1NC(C)CN(c2ccnc(-c3cnc4cnc(Cl)cn34)n2)C1C (stereo not shown) [IV-278, 6-Chloro-3-(4-(2,5-dimethyl-3-(5-methyl-1H-pyrazol-4-yl)piperazin-1-yl)pyrimidin-2-yl)imidazo[1,2-a]pyrazine]
100 to 1000	NC(=O)c1cn2c(-c3cccc(N4CCN(C(=O)C5CC5)CC4)n3)cnc2cn1 [IV-284, 3-(6-(4-(Cyclopropanecarbonyl)piperazin-1-yl)pyridin-2-yl)imidazo[1,2-a]pyrazine-6-carboxamide]
10 to 100	CC(=O)N1CCN(c2ccnc(-c3cnc4cnc(-c5ccncc5)cn34)n2)CC1 [IV-285, 1-(4-(2-(6-(Pyridin-4-yl)imidazo[1,2-a]pyrazin-3-yl)pyrimidin-4-yl)piperazin-1-yl)ethan-1-one]

The remaining lines, values behind:

Compound	Ki [nM]
NC(=O)c1cn2c(-c3cccc(N4CCCC(CO)C4)n3)cnc2cn1 (stereo not shown) [IV-220, 3-(6-(3-(Hydroxymethyl)piperidin-1-yl)pyridin-2-yl)imidazo[1,2-a]pyrazine-6-carboxamide]	10 to 100
NC(=O)c1cn2c(-c3cccc(N4CCC(CO)CC4)n3)cnc2cn1 [IV-221, 3-(6-(4-(Hydroxymethyl)piperidin-1-yl)pyridin-2-yl)imidazo[1,2-a]pyrazine-6-carboxamide]	10 to 100
CC(C)(O)C1CCN(c2cccc(-c3cnc4cnc(C(N)=O)cn34)n2)CC1 [IV-226, 3-(6-(4-(2-Hydroxypropan-2-yl)piperidin-1-yl)pyridin-2-yl)imidazo[1,2-a]pyrazine-6-carboxamide]	10 to 100
NC(=O)c1cn2c(-c3cccc(N4CCN5C(=O)NCC5C4)n3)cnc2cn1 (stereo not shown) [IV-227, 3-(6-(3-Oxohexahydroimidazo[1,5-a]pyrazin-7(1H)-yl)pyridin-2-yl)imidazo[1,2-a]pyrazine-6-carboxamide]	100 to 1000
FC(F)c1cn2c(-c3cccc(-c4cccc5[nH]ccc45)n3)cnc2cn1 [IV-233, 3-(6-(1H-Indol-4-yl)pyridin-2-yl)-6-(difluoromethyl)imidazo[1,2-a]pyrazine]	10 to 100
CN1CCN(c2ccnc(-c3cnc4cnc(C(N)=O)cn34)n2)CC1 [IV-239, 3-(4-(4-Methylpiperazin-1-yl)pyrimidin-2-yl)imidazo[1,2-a]pyrazine-6-carboxamide]	100 to 1000
NC(=O)c1cn2c(-c3nccc(N4CCOCC4)n3)cnc2cn1 [IV-240]	100 to 1000
NC(=O)c1cn2c(-c3nccc(N4CCCCC4CO)n3)cnc2cn1 (stereo not shown) [IV-241, 3-(4-(2-(Hydroxymethyl)piperidin-1-yl)pyrimidin-2-yl)imidazo[1,2-a]pyrazine-6-carboxamide]	100 to 1000
NC(=O)c1cn2c(-c3nccc(N4CCCC(CO)C4)n3)cnc2cn1 (stereo not shown) [IV-242, 3-(4-(3-(Hydroxymethyl)piperidin-1-yl)pyrimidin-2-yl)imidazo[1,2-a]pyrazine-6-carboxamide]	10 to 100
NC(=O)c1cn2c(-c3nccc(N4CCC(CO)CC4)n3)cnc2cn1 [IV-243, 3-(4-(4-(Hydroxymethyl)piperidin-1-yl)pyrimidin-2-yl)imidazo[1,2-a]pyrazine-6-carboxamide]	10 to 100
CC(=O)NC1CCN(c2ccnc(-c3cnc4cnc(C(N)=O)cn34)n2)CC1 [IV-248, 3-(4-(4-Acetamidopiperidin-1-yl)pyrimidin-2-yl)imidazo[1,2-a]pyrazine-6-carboxamide]	10 to 100
CC(=O)NC1CCCN(c2ccnc(-c3cnc4cnc(C(N)=O)cn34)n2)C1 (stereo not shown) [IV-249, 3-(4-(3-Acetamidopiperidin-1-yl)pyrimidin-2-yl)imidazo[1,2-a]pyrazine-6-carboxamide]	100 to 1000
CS(=O)(=O)NC1CCCN(c2ccnc(-c3cnc4cnc(C(N)=O)cn34)n2)C1 (stereo not shown) [IV-250, 3-(4-(3-(Methylsulfonamido)piperidin-1-yl)pyrimidin-2-yl)imidazo[1,2-a]pyrazine-6-carboxamide]	100 to 1000
CNS(=O)(=O)C1CCCN(c2ccnc(-c3cnc4cnc(C(N)=O)cn34)n2)C1 (stereo not shown) [IV-251, 3-(4-(3-(N-Methylsulfamoyl)piperidin-1-yl)pyrimidin-2-yl)imidazo[1,2-a]pyrazine-6-carboxamide]	100 to 1000
CNS(=O)(=O)C1CCN(c2ccnc(-c3cnc4cnc(C(N)=O)cn34)n2)CC1 [IV-252, 3-(4-(4-(N-Methylsulfamoyl)piperidin-1-yl)pyrimidin-2-yl)imidazo[1,2-a]pyrazine-6-carboxamide]	100 to 1000
N#CC1CN(c2ccnc(-c3cnc4cnc(C(N)=O)cn34)n2)CCC1=O (stereo not shown) [IV-253, 3-(4-(3-Cyano-4-oxopiperidin-1-yl)pyrimidin-2-yl)imidazo[1,2-a]pyrazine-6-carboxamide]	10 to 100
N#CC1CCN(c2ccnc(-c3cnc4cnc(C(N)=O)cn34)n2)CC1 [IV-254, 3-(4-(4-Cyanopiperidin-1-yl)pyrimidin-2-yl)imidazo[1,2-a]pyrazine-6-carboxamide]	10 to 100
FC(F)(F)c1cn2c(-c3nccc(N4CCCC(n5ccnc5)C4)n3)cnc2cn1 (stereo not shown) [IV-255, 3-(4-(3-(1H-Imidazol-1-yl)piperidin-1-yl)pyrimidin-2-yl)-6-(trifluoromethyl)imidazo[1,2-a]pyrazine]	10 to 100
NC(=O)c1cn2c(-c3nccc(N4CCCC(N)C4)n3)cnc2cn1 (stereo not shown) [IV-256, 3-(4-(3-Aminopiperidin-1-yl)pyrimidin-2-yl)imidazo[1,2-a]pyrazine-6-carboxamide]	100 to 1000
NC(=O)c1cn2c(-c3nccc(N4CCN5C(=O)CCCC5C4)n3)cnc2cn1 (stereo not shown) [IV-257, 3-(4-(6-Oxooctahydro-2H-pyrido[1,2-a]pyrazin-2-yl)pyrimidin-2-yl)imidazo[1,2-a]pyrazine-6-carboxamide]	10 to 100
N#CC1CCCCN1c1ccnc(-c2cnc3cnc(C(N)=O)cn23)n1 (stereo not shown) [IV-258, 3-(4-(2-Cyanopiperidin-1-yl)pyrimidin-2-yl)imidazo[1,2-a]pyrazine-6-carboxamide]	100 to 1000
CC(=O)N1CCN(c2cccc(-c3cnc4cnc(C(F)(F)F)cn34)n2)CC1 [IV-259, 1-(4-(6-(6-(Trifluoromethyl)imidazo[1,2-a]pyrazin-3-yl)pyridin-2-yl)piperazin-1-yl)ethan-1-one]	100 to 1000
CNC(=O)c1cn2c(-c3cccc(N4CCN(C(C)=O)CC4)n3)cnc2cn1 [IV-260, 3-(6-(4-Acetylpiperazin-1-yl)pyridin-2-yl)-N-methylimidazo[1,2-a]pyrazine-6-carboxamide]	10 to 100
CC1CCCCN1c1ccnc(-c2cnc3cnc(C(N)=O)cn23)n1 (stereo not shown) [IV-261, 3-(4-(2-Methylpiperidin-1-yl)pyrimidin-2-yl)imidazo[1,2-a]pyrazine-6-carboxamide]	10 to 100
NC(=O)c1cn2c(-c3nccc(N4CCC(=O)N5CCCC5C4)n3)cnc2cn1 (stereo not shown) [IV-262, 3-(4-(5-Oxohexahydro-1H-pyrrolo[1,2-a][1,4]diazepin-2(3H)-yl)pyrimidin-2-yl)imidazo[1,2-a]pyrazine-6-carboxamide]	100 to 1000
